# Where no end group is shown, it is not given here.
# Legend:
# [1] = test system: Aβ1–42-GFP fusion protein expressed in U87 cells; test: Reduction in expressed Aβ1–42-GFP aggregation, flow cytometry; format: cell-based, human; details: control inhibitor
# [2] = test system: U87 cells
# Protocol: Cell proliferation was analyzed with the CellTiter 96® Aqueous Non-Radioactive Cell Proliferation Assay (MTS) (Promega Biotech AB, Stockholm, Sweden) according to the manufacturer’s instructions. For this 1 × 10^5 U87 cells were seeded one day prior to the experiment on a transparent 96-well plate. On the experiment day, the media was replaced with 90 μL of fresh serum free or serum (10% FBS) containing media and to the wells, the peptides at the concentration range of 0–20 µM were added. The absorbance of formazan product was measured 20 h post-addition of peptides at 490 nm with Tecan Sunrise microplate absorbance reader (Tecan Group Ltd., Stockholm, Sweden). […] Additional background controls: MTS–reagent and media, without cells, Media–cells with only media and without reagent.
Compound,green signal in Aβ42–EGFP expressing cells after known Aβ inhibitor [1],peptide concentration at which cell viability is reduced (MTS) in serum free media [2] [µM],reduction in the viability of cells (MTS) in serum free media [2]
O=S1(=O)OC(c2ccc(O)cc2)(c2ccc(O)cc2)c2ccccc21 [phenol red],significantly increased the green signal,,
MANLGYWLLALFVTMWTDVGLCKKRPKP-NH2 [PrP1–28],,2.5,over 20%
MLRTKDLIWTLFFLGTAVSKKRPKP-NH2 [NCAM1_1–19PrP23–28],,20,

# — paper PMC10002422, “Aggregation Limiting Cell-Penetrating Peptides Derived from Protein Signal Sequences” (International Journal of Molecular Sciences, 2023)
